From patent US11180462B2, “Microbiocidal oxadiazole derivatives” (SYNGENTA PARTICIPATIONS AG, priority 2015, dated 2021)

Columns and labels:
[1] = system: Puccinia recondita f. Sp. Tritici; assay: Fungicidal activity against Puccinia recondita f. sp. tritici / wheat / leaf disc preventative (brown rust); type: in vivo; details: foliar, 200 ppm in the applied formulation, wheat leaf segments, preventative, compared to untreated control leaf disks, read-out: disease control
In short: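 Preventative leaf-segment test, wheat cv. Kanzler on water agar. Spray compound at 200 ppm, inoculate with spores 1 day later; 19° C., 75% rh, 12/12 h light. Read-out: % disease control vs untreated, 7 to 9 days after application.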

[2] = system: Puccinia recondita f. Sp. Tritici; assay: Fungicidal activity against Puccinia recondita f. sp. tritici / wheat / leaf disc curative (brown rust); type: in vivo; details: foliar, 24 h, 200 ppm in the applied formulation, wheat leaf segments, curative (applied 1 day after inoculation), compared to untreated control leaf disks, read-out: disease control
In short: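 Scoring is percent disease control relative to untreated segments, made 6 to 8 days after treatment. Wheat (cv. Kanzler) leaf segments received the formulated, water-diluted compound one day post-inoculation with spores, having been kept dark at 19° C and 75% RH, then incubated under 12 h light/12 h dark at the same temperature and humidity.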

Phakopsora Pachyrhizi = assay: Fungicidal activity against Phakopsora pachyrhizi / soybean / leaf disc preventative (Asian soybean rust); type: in vivo; details: foliar, 200 ppm in the applied formulation, soybean leaf disks, compared to untreated control leaf disks, read-out: disease control
In short: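 Preventative soybean leaf-disc test: discs on water agar sprayed with diluted formulated compound, inoculated one day later with spores on the lower surface. Held 24–36 h dark at 20°C, 75% rh, then 12 h light/day; percent disease control versus untreated discs scored 12–14 days after application.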

[3] = system: Glomerella lagenarium (Colletotrichum lagenarium); assay: Fungicidal activity against Glomerella lagenarium (Colletotrichum lagenarium) liquid culture / cucumber / preventative (anthracnose); type: cell-based; details: Colletotrichum orbiculare; 20 ppm in the applied formulation; liquid culture (PDB), growth inhibition measured photometrically after 3 to 4 days; compared to untreated control; read-out: disease control
In short: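 Photometric read-out of fungal growth after 2–7 days, expressed as percent antifungal activity versus untreated check. Cryo-stored conidia in PDB; compound at 20 ppm; dark, 24 °C, 96% RH.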

CC(C)C(=O)N(Cc1ccc(-c2noc(C(F)(F)F)n2)cc1)CC1CC1 [Compound 1.206, N-(cyclopropylmethyl)-2-methyl-N-[[4-[5-(trifluoromethyl)-1,2,4-oxadiazol-3-yl]phenyl]methyl]-propanamide]
≥ 80%: pest or weed control at 200 ppm [1] | pest or weed control at 200 ppm [2] | pest or weed control at 200 ppm (Phakopsora Pachyrhizi) | inhibition of growth at 20 ppm [3]

O=C(C1CCOC1)N(Cc1ccc(-c2noc(C(F)(F)F)n2)cc1)CC1CC1 (stereo not shown) [Compound 1.215, N-(cyclopropylmethyl)-N-[[4-[5-(trifluoromethyl)-1,2,4-oxadiazol-3-yl]phenyl]methyl]-tetrahydrofuran-3-carboxamide]
≥ 80%: pest or weed control at 200 ppm [1] | pest or weed control at 200 ppm [2] | pest or weed control at 200 ppm (Phakopsora Pachyrhizi) | inhibition of growth at 20 ppm [3]

O=C(C1CSC1)N(Cc1ccc(-c2noc(C(F)(F)F)n2)cc1)CC1CC1 [Compound 1.216, N-(cyclopropylmethyl)-N-[[4-[5-(trifluoromethyl)-1,2,4-oxadiazol-3-yl]phenyl]methyl]-thietane-3-carboxamide]
≥ 80%: pest or weed control at 200 ppm [1] | pest or weed control at 200 ppm [2] | pest or weed control at 200 ppm (Phakopsora Pachyrhizi) | inhibition of growth at 20 ppm [3]

COCCC(=O)N(Cc1ccc(-c2noc(C(F)(F)F)n2)cc1)CC1CC1 [Compound 1.217, N-(cyclopropylmethyl)-3-melhoxy-N-[[4-[5-(trifluoromethyl)-1,2,4-oxadiazol-3-yl]phenyl]methyl]-propanamide]
≥ 80%: pest or weed control at 200 ppm [1] | pest or weed control at 200 ppm [2] | pest or weed control at 200 ppm (Phakopsora Pachyrhizi) | inhibition of growth at 20 ppm [3]

CC1CC1C(=O)N(Cc1ccc(-c2noc(C(F)(F)F)n2)cc1)CC1CC1 (stereo not shown) [Compound 1.223, N-(cyclopropylmethyl)-2-methyl-N-[[4-[5-(trifluoromethyl)-1,2,4-oxadiazol-3-yl]phenyl]methyl]-cyclopropane-carboxamide]
≥ 80%: pest or weed control at 200 ppm [1] | pest or weed control at 200 ppm [2] | pest or weed control at 200 ppm (Phakopsora Pachyrhizi) | inhibition of growth at 20 ppm [3]

CC1(C(=O)N(Cc2ccc(-c3noc(C(F)(F)F)n3)cc2)CC2CC2)CC1 [Compound 1.226, N-(cyclopropylmethyl)-1-methyl-N-[[4-[5-(trifluoromethyl)-1,2,4-oxadiazol-3-yl]phenyl]methyl]-cyctopropane-carboxamide]
≥ 80%: pest or weed control at 200 ppm [1] | pest or weed control at 200 ppm [2] | pest or weed control at 200 ppm (Phakopsora Pachyrhizi) | inhibition of growth at 20 ppm [3]

CCC(=O)N(Cc1ccc(-c2noc(C(F)(F)F)n2)cc1)CC1CC1 [Compound 1.227, N-(cyclopropylmethyl)-N-[[4-[5-(trifluoromethyl)-1,2,4-oxadiazol-3-yl]phenyl]methyl]-propanamide]
≥ 80%: pest or weed control at 200 ppm [1] | pest or weed control at 200 ppm [2] | pest or weed control at 200 ppm (Phakopsora Pachyrhizi) | inhibition of growth at 20 ppm [3]

C=C(C)C(=O)N(Cc1ccc(-c2noc(C(F)(F)F)n2)cc1)CC1CC1 [Compound 1.229, N-(cyclopropylmethyl)-2-methyl-N-[[4-[5-(trifluoromethyl)-1,2,4-oxadiazol-3-yl]phenyl]methyl]-prop-2-enamide]
≥ 80%: pest or weed control at 200 ppm [1] | pest or weed control at 200 ppm [2] | pest or weed control at 200 ppm (Phakopsora Pachyrhizi) | inhibition of growth at 20 ppm [3]

O=C(C1CCSCC1)N(Cc1ccc(-c2noc(C(F)(F)F)n2)cc1)CC1CC1 [Compound 1.230, N-(cyclopropylmethyl)-N-[[4-[5-(trifluoromethyl)-1,2,4-oxadiazol-3-yl]phenyl]methyl]-tetrahydrothiopyran-4-carboxamide]
≥ 80%: pest or weed control at 200 ppm [1] | pest or weed control at 200 ppm [2] | pest or weed control at 200 ppm (Phakopsora Pachyrhizi) | inhibition of growth at 20 ppm [3]

CCC(C)C(=O)N(Cc1ccc(-c2noc(C(F)(F)F)n2)cc1)CC1CC1 (stereo not shown) [Compound 1.233, N-(cyclopropylmethyl)-2-methyl-N-[[4-[5-(trifluoromethyl)-1,2,4-oxadiazol-3-yl]phenyl]methyl]-butanamide]
≥ 80%: pest or weed control at 200 ppm [1] | pest or weed control at 200 ppm [2] | pest or weed control at 200 ppm (Phakopsora Pachyrhizi) | inhibition of growth at 20 ppm [3]
